30 compounds from US9573966B2, “Anti-cancer activity of novel bicyclic heterocycles” (Katholieke Universiteit Leuven, K.U.Leuven R&D, priority 2010, dated 2017) can be followed below.

As usually defined, the IC50 is the concentration that inhibits the measured activity by half.

The subject of the first assay is HSB-2 cells. In words: Inhibition of HSB-2 leukemic cell line proliferation (WST-1). The note with it: Homo sapiens, HSB2, 48 h, cytotoxicity on HSB-2 cells, two days incubation, WST-1 read-out. The assay is classed as cell-based, human. How it is done:
HSB2 cell line, a human acute lymphoblastic leukemia (ATCC; CCL-120.1) cell line, was grown in RPMI-1640 medium (Lonza, Belgium) supplemented with 10% fetal calf serum (Hyclone, US) and antibiotics. Exponential growing phase cells were seed in flat bottom 96-well microplates (TTP, Switzerland) at 50000 cells per well in 220 μl of medium with compounds (in different concentrations) and incubated for two days at 37° C., 5% CO2. After incubation, 100 μl of supernatant were removed and 10 μl of WST-1 (Roche, Switzerland) were added. After 2 hour incubation at 37° C., 5% CO2, optical densities were measured at 450 nm. Proliferation is calculated with respect of control points (no compound and treatment with Triton X100 to have maximum and minimum proliferation data). The IC50 was determined from a graph with at least four points, each derived from the mean of at least 2 experiments. […] The results are shown in Table 1 for a number of compounds.
On the technique in general: Tetrazolium dyes change colour on reduction, which living cells bring about.
As to `Nc1nc(N2CCN(C(=O)COc3ccc(Cl)cc3)CC2)c2nc(-c3ccccc3)sc2n1` [Example 215, 1-(4-(5-amino-2-phenylthiazolo[5,4-d]pyrimidin-7-yl)piperazin-1-yl)-2-(4-chlorophenoxy)ethanone], the concentration for half-maximal inhibition (IC50) turned out to be 0.24 µM.
On the same count and under the same terms, next, `Nc1nc(N2CCN(C(=O)COc3ccc(O)cc3)CC2)c2nc(CCc3ccc(F)cc3)sc2n1` [Example 224, 1-(4-(5-amino-2-(4-fluorophenethyl)thiazolo[5,4-d]pyrimidin-7-yl)piperazin-1-yl)-2-(4-hydroxyphenoxy)ethanone]: 3.94 µM; `COC(=O)c1ccc(OCC(=O)N2CCN(c3nc(N)nc4sc(CCc5ccc(F)cc5)nc34)CC2)cc1` [Example 225, methyl 4-(2-(4-(5-amino-2-(4-fluorophenethyl)thiazolo[5,4-d]pyrimidin-7-yl)piperazin-1-yl)-2-oxoethoxy)benzoate]: above 10 µM.
Still for that read-out and setting: next, `Nc1nc(N2CCN(C(=O)COc3ccc(OC(F)(F)F)cc3)CC2)c2nc(CCc3ccc(F)cc3)sc2n1` [Example 226, 1-(4-(5-amino-2-(4-fluorophenethyl)thiazolo[5,4-d]pyrimidin-7-yl)piperazin-1-yl)-2-(4-(trifluoromethoxy)phenoxy)ethanone]: above 10 µM.
On the same count and under the same terms, as for `CC(=O)c1ccc(OCC(=O)N2CCN(c3nc(N)nc4sc(CCc5ccc(F)cc5)nc34)CC2)cc1` [Example 227, 2-(4-acetylphenoxy)-1-(4-(5-amino-2-(4-fluorophenethyl)thiazolo[5,4-d]pyrimidin-7-yl)piperazin-1-yl)ethanone], the figure is above 10 µM.
Consider `Nc1nc(N2CCN(C(=O)COc3cccc(Cl)c3)CC2)c2nc(CCc3ccc(F)cc3)sc2n1` [Example 228, 1-(4-(5-amino-2-(4-fluorophenethyl)thiazolo[5,4-d]pyrimidin-7-yl)piperazin-1-yl)-2-(3-chlorophenoxy)ethanone], for which the half-inhibitory concentration (IC50) is above 10 µM.
As for `COc1ccc(OCC(=O)N2CCN(c3nc(N)nc4sc(Cc5ccc(F)cc5)nc34)CC2)cc1` [Example 230, 1-(4-(5-amino-2-(4-fluorobenzyl)thiazolo[5,4-d]pyrimidin-7-yl)piperazin-1-yl)-2-(4-methoxyphenoxy)ethanone], the IC50 was 2.21 µM.
Regarding `Nc1nc(N2CCN(C(=O)COc3ccc(Br)cc3)CC2)c2nc(Cc3ccc(F)cc3)sc2n1` [Example 231, 1-(4-(5-amino-2-(4-fluorobenzyl)thiazolo[5,4-d]pyrimidin-7-yl)piperazin-1-yl)-2-(4-bromophenoxy)ethanone], the IC50 was found to be 2.63 µM.
Regarding `Nc1nc(N2CCN(C(=O)COc3ccc(F)cc3)CC2)c2nc(-c3ccc(F)cc3)sc2n1` [Example 233, 1-(4-(5-amino-2-(4-fluorophenyl)thiazolo[5,4-d]pyrimidin-7-yl)piperazin-1-yl)-2-(4-fluorophenoxy)ethanone], the IC50 was above 10 µM.
Consider `COc1ccc(OCC(=O)N2CCN(c3nc(N)nc4sc(-c5ccc(F)cc5)nc34)CC2)cc1` [Example 234, 1-(4-(5-amino-2-(4-fluorophenyl)thiazolo[5,4-d]pyrimidin-7-yl)piperazin-1-yl)-2-(4-methoxyphenoxy)ethanone], for which the IC50 stood at 0.2 µM.
The same measure, in the same setting: as for `COc1ccc(OCC(=O)N2CCN(c3nc(N)nc4sc(CCc5cccc(OC)c5)nc34)CC2)cc1` [Example 253, 1-(4-(5-amino-2-(3-methoxyphenethyl)thiazolo[5,4-d]pyrimidin-7-yl)piperazin-1-yl)-2-(4-methoxyphenoxy)ethanone], the figure is 4.99 µM.
On the same count and under the same terms, as for `COc1cccc(CCc2nc3c(N4CCN(C(=O)COc5ccc(Br)cc5)CC4)nc(N)nc3s2)c1` [Example 254, 1-(4-(5-amino-2-(3-methoxyphenethyl)thiazolo[5,4-d]pyrimidin-7-yl)piperazin-1-yl)-2-(4-bromophenoxy)ethanone], the figure is above 10 µM; as for `COc1cccc(CCc2nc3c(N4CCN(C(=O)COc5ccc(Cl)cc5)CC4)nc(N)nc3s2)c1` [Example 255, 1-(4-(5-amino-2-(3-methoxyphenethyl)thiazolo[5,4-d]pyrimidin-7-yl)piperazin-1-yl)-2-(4-chlorophenoxy)ethanone], 2.1 µM; as for `COc1ccc(CCc2nc3c(N4CCN(C(=O)COc5ccc(Br)cc5)CC4)nc(N)nc3s2)cc1OC` [Example 256, 1-(4-(5-amino-2-(3,4-dimethoxyphenethyl)thiazolo[5,4-d]pyrimidin-7-yl)piperazin-1-yl)-2-(4-bromophenoxy)ethanone], above 10 µM.
Same read-out and setting: as for `COc1ccc(OCC(=O)N2CCN(c3nc(N)nc4sc(CCc5ccc(OC)c(OC)c5)nc34)CC2)cc1` [Example 257, 1-(4-(5-amino-2-(3,4-dimethoxyphenethyl)thiazolo[5,4-d]pyrimidin-7-yl)piperazin-1-yl)-2-(4-methoxyphenoxy)ethanone], the figure is above 10 µM.
On to `Cc1ccc(CCc2nc3c(N4CCN(C(=O)COc5ccc(Br)cc5)CC4)nc(N)nc3s2)cc1` [Example 258, 1-(4-(5-amino-2-(4-methylphenethyl)thiazolo[5,4-d]pyrimidin-7-yl)piperazin-1-yl)-2-(4-bromophenoxy)ethanone], for which the IC50 is above 10 µM.
The same measure, in the same setting: next, `COc1ccc(OCC(=O)N2CCN(c3nc(N)nc4sc(CCc5ccc(C)cc5)nc34)CC2)cc1` [Example 259, 1-(4-(5-amino-2-(4-methylphenethyl)thiazolo[5,4-d]pyrimidin-7-yl)piperazin-1-yl)-2-(4-methoxyphenoxy)ethanone]: 3 µM.
The same measure, in the same setting: as for `Cc1ccc(CCc2nc3c(N4CCN(C(=O)COc5ccc(Cl)cc5)CC4)nc(N)nc3s2)cc1` [Example 260, 1-(4-(5-amino-2-(4-methylphenethyl)thiazolo[5,4-d]pyrimidin-7-yl)piperazin-1-yl)-2-(4-chlorophenoxy)ethanone], the figure is 4.49 µM.
Same read-out and setting: as for `Nc1nc(N2CCN(C(=O)COc3ccc(Cl)cc3)CC2)c2nc(CCCc3ccc(F)cc3)sc2n1` [Example 290, 1-(4-(5-amino-2-(3-(4-fluorophenyl)propyl)thiazolo[5,4-d]pyrimidin-7-yl)piperazin-1-yl)-2-(4-chlorophenoxy)ethanone], the figure is above 10 µM.
For `COc1ccc(OCC(=O)N2CCN(c3nc(N)nc4sc(CCCc5ccc(F)cc5)nc34)CC2)cc1` [Example 291, 1-(4-(5-amino-2-(3-(4-fluorophenyl)propyl)thiazolo[5,4-d]pyrimidin-7-yl)piperazin-1-yl)-2-(4-methoxyphenoxy)ethanone], the IC50 is above 10 µM.
Still for that read-out and setting: next, `Nc1nc(N2CCN(C(=O)COc3ccc(Cl)cc3)CC2)c2nc(CCCCc3ccc(F)cc3)sc2n1` [Example 292, 1-(4-(5-amino-2-(4-(4-fluorophenyl)butyl)thiazolo[5,4-d]pyrimidin-7-yl)piperazin-1-yl)-2-(4-chlorophenoxy)ethanone]: 9.79 µM; `COc1ccc(OCC(=O)N2CCN(c3nc(N)nc4sc(CCCCc5ccc(F)cc5)nc34)CC2)cc1` [Example 293, 1-(4-(5-amino-2-(4-(4-fluorophenyl)butyl)thiazolo[5,4-d]pyrimidin-7-yl)piperazin-1-yl)-2-(4-methoxyphenoxy)ethanone]: 0.83 µM.
The same measure, in the same setting: next, `COc1ccc(OCC(=O)N2CCN(c3nc(N)nc4sc(-c5ccc(C)cc5)nc34)CC2)cc1` [Example 294, 1-(4-(5-amino-2-p-tolylthiazolo[5,4-d]pyrimidin-7-yl)piperazin-1-yl)-2-(4-methoxyphenoxy)ethanone]: 4.16 µM; `Cc1ccc(-c2nc3c(N4CCN(C(=O)COc5ccc(Cl)cc5)CC4)nc(N)nc3s2)cc1` [Example 295, 1-(4-(5-amino-2-p-tolylthiazolo[5,4-d]pyrimidin-7-yl)piperazin-1-yl)-2-(4-chlorophenoxy)ethanone]: 0.23 µM.
Still for that read-out and setting: next, `COc1ccc(OCC(=O)N2CCN(c3nc(N)nc4sc(CCc5ccc(Br)cc5)nc34)CC2)cc1` [Example 298, 1-(4-(5-amino-2-(4-bromophenethyl)thiazolo[5,4-d]pyrimidin-7-yl)piperazin-1-yl)-2-(4-methoxyphenoxy)ethanone]: above 10 µM; `Nc1nc(N2CCN(C(=O)COc3ccc(Cl)cc3)CC2)c2nc(CCc3ccc(Br)cc3)sc2n1` [Example 299, 1-(4-(5-amino-2-(4-bromophenethyl)thiazolo[5,4-d]pyrimidin-7-yl)piperazin-1-yl)-2-(4-chlorophenoxy)ethanone]: 3.72 µM; `O=C(COc1ccc(Cl)cc1)N1CCN(c2ncnc3sc(-c4ccc(F)cc4)nc23)CC1` [Example 301, 1-(4-(2-(4-fluorophenyl)thiazolo[5,4-d]pyrimidin-7-yl)piperazin-1-yl)-2-(4-chlorophenoxy)ethanone]: 2.06 µM.
For the compound `Nc1nc(N2CCN(C(=O)COc3ccc(F)cc3)CC2)c2cc(-c3ccccc3)sc2n1` [Example 370, 1-(4-(2-amino-6-phenylthieno[2,3-d]pyrimidin-4-yl)piperazin-1-yl)-2-(4-fluorophenoxy)ethanone], the 50% inhibitory concentration (IC50) was found to be 6.38 µM.
As for `Nc1nc(N2CCN(C(=O)COc3ccc(Br)cc3)CC2)c2cc(-c3ccccc3)sc2n1` [Example 372, 1-(4-(2-amino-6-phenylthieno[2,3-d]pyrimidin-4-yl)piperazin-1-yl)-2-(4-bromophenoxy)ethanone], the IC50 came to 9.87 µM.

The assay is the same for the next values; noted with them: cytotoxicity on HSB-2 cells, two days incubation, WST-1 read-out.
Regarding `Nc1nc(N2CCN(C(=O)COc3ccc(Br)cc3)CC2)c2nc(-c3ccc(F)cc3)sc2n1` [Example 235, 1-(4-(5-amino-2-(4-fluorophenyl)thiazolo[5,4-d]pyrimidin-7-yl)piperazin-1-yl)-2-(4-bromophenoxy)ethanone], the IC50 was found to be 0.55 µM.
